# Test results reported in ChEMBL document CHEMBL1914348, “Discovery of pyrazoles as novel FPR1 antagonists” (Bioorg Med Chem Lett, 2011).
# Active and inactive are the calls of the source. No cut-off for these calls is given here.
# Molecular target: T1, fMet-Leu-Phe receptor (Homo sapiens, UniProt P21462)
# T1 sequence (P21462 whole entry): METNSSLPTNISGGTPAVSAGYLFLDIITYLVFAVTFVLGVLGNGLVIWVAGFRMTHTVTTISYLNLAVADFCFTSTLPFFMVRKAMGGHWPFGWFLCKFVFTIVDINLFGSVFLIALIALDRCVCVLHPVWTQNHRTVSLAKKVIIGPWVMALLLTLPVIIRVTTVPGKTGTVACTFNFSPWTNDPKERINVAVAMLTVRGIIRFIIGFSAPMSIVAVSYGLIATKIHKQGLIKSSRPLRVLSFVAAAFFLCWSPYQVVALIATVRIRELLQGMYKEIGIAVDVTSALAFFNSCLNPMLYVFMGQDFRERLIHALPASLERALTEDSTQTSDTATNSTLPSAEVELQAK
# Experiment: Antagonist activity at human FPR1 in human neutrophils assessed as inhibition of fMLF-stimulated intracellular calcium mobilisation by FLIPR assay
# Assay type: functional, cell-based
# Settings: not given
row,SMILES,IC50
1,CCC(CC)NC(=O)c1cnn(-c2ccccc2)c1NS(=O)(=O)C1CCCC1,5.01 µM
2,Cc1ccc(S(=O)(=O)Nc2c(C(=O)NC3CCCCC3C)cnn2-c2ccccc2)cc1 (mixture of isomers),1 µM
3,CCC(CC)NC(=O)c1cnn(Cc2ccccc2)c1NS(=O)(=O)c1ccc(C)cc1,5.01 µM
4,CCC(CC)NC(=O)c1c(C)nn(-c2ccccc2)c1NS(=O)(=O)c1ccc(C)cc1,0.501 µM
5,Cc1ccc(S(=O)(=O)Nc2c(C(=O)NC3CCOCC3)cnn2-c2ccccc2)cc1,10 µM
6,Cc1ccc(S(=O)(=O)Nc2c(C(=O)NC(C)C(C)(C)C)c(C)nn2-c2ccccc2)cc1 (centres undefined),0.126 µM
7,Cc1nn(-c2ccc(F)cc2)c(NS(=O)(=O)c2ccc(C#N)cc2)c1C(=O)N[C@@H](C)C(C)(C)C,0.0251 µM
8,CCC(CC)NC(=O)c1cn(-c2ccccc2)nc1NS(=O)(=O)c1ccc(C)cc1,10 µM
9,Cc1ccc(S(=O)(=O)Nc2c(C(=O)NCc3ccccc3)cnn2-c2ccccc2)cc1,10 µM
10,Cc1ccc(S(=O)(=O)Nc2c(C(=O)NCc3ccc(C)cc3C)cnn2-c2ccccc2)cc1,0.794 µM
11,Cc1nn(-c2ccc(F)cc2)c(NS(=O)(=O)c2ccc(C(F)(F)F)cc2)c1C(=O)N[C@@H](C)C(C)(C)C,0.0126 µM
12,CCC(C)NC(=O)c1c(C)nn(-c2ccccc2)c1NS(=O)(=O)c1ccc(C)cc1 (centres undefined),0.158 µM
13,CCC(CC)NC(=O)c1cnn(-c2ccccc2)c1NS(=O)(=O)c1ccc(C)cc1,2 µM
14,CCN(C(=O)c1cnn(-c2ccccc2)c1NS(=O)(=O)c1ccc(-c2cnco2)cc1)C1CCCCC1,0.0794 µM
15,Cc1ccc(S(=O)(=O)Nc2c(C(=O)NC3CCCCC3C)c(C)nn2-c2ccccc2)cc1 (mixture of isomers),0.158 µM
16,Cc1ccc(S(=O)(=O)Nc2c(C(=O)NC3CCCCC3)c(C)nn2-c2ccccc2)cc1,0.794 µM
17,CCC(CC)NC(=O)c1cnn(-c2ccccc2)c1NS(=O)(=O)c1ccc(-c2cnco2)cc1,5.01 µM

# Molecular target: T2, fMet-Leu-Phe receptor (Homo sapiens) (UniProt P21462)
# T2 sequence (whole entry): T1 sequence (P21462 whole entry)
# Experiment: Antagonist activity at human FPR1 in human neutrophils assessed as inhibition of fMLF-stimulated intracellular calcium mobilisation at 50 uM by FLIPR assay
# Assay type: functional, cell-based
# Settings: not given
row,SMILES,inhibition
1,CCC(CC)NC(=O)c1cnn(C)c1NS(=O)(=O)c1ccc(C)cc1,< 25%
2,Cc1nn(-c2ccccc2)c(NS(=O)(=O)c2cccc(CN3CCOCC3)c2)c1C(=O)N[C@@H](C)C(C)(C)C,< 25%
3,Cc1ccc(S(=O)(=O)Nc2c(C(=O)NC3CCN(C)CC3)cnn2-c2ccccc2)cc1,< 25%
4,CNC(=O)c1cnn(-c2ccccc2)c1NS(=O)(=O)c1ccc(C)cc1,< 25%

# Molecular target: T1, fMet-Leu-Phe receptor
# Experiment: Antagonist activity at FPR1 in whole blood assessed as CD11 level
# Assay type: functional, tissue-based
# Settings: read-out: pA2 (converted)
row,SMILES,Kb
1,Cc1nn(-c2ccc(F)cc2)c(NS(=O)(=O)c2ccc(C#N)cc2)c1C(=O)N[C@@H](C)C(C)(C)C,0.126 µM

# Tested on: not listed separately
# Experiment: Lipophilicity, log D of the compound
# Assay type: physicochemical
# Settings: octanol/water
row,SMILES,logD
1,Cc1nn(-c2ccc(F)cc2)c(NS(=O)(=O)c2ccc(C#N)cc2)c1C(=O)N[C@@H](C)C(C)(C)C,0.5

# Tested on: not listed separately
# Experiment: Solubility of the compound
# Assay type: physicochemical
# Settings: not given
row,SMILES,solubility
1,Cc1nn(-c2ccc(F)cc2)c(NS(=O)(=O)c2ccc(C#N)cc2)c1C(=O)N[C@@H](C)C(C)(C)C,> 1000 µM

# Tested on: not listed separately
# Experiment: Fraction unbound in human
# Assay type: ADME, organism-based
# Settings: in vivo
row,SMILES,fraction unbound
1,Cc1nn(-c2ccc(F)cc2)c(NS(=O)(=O)c2ccc(C#N)cc2)c1C(=O)N[C@@H](C)C(C)(C)C,0.06

# Tested on: not listed separately
# Experiment: Fraction unbound in rat
# Assay type: ADME, organism-based
# Settings: in vivo
row,SMILES,fraction unbound
1,Cc1nn(-c2ccc(F)cc2)c(NS(=O)(=O)c2ccc(C#N)cc2)c1C(=O)N[C@@H](C)C(C)(C)C,0.1

# Tested on: not listed separately
# Experiment: Intrinsic clearance in human microsomes
# Assay type: ADME, Microsome
# Settings: not given
row,SMILES,microsomal CLint
1,Cc1nn(-c2ccc(F)cc2)c(NS(=O)(=O)c2ccc(C#N)cc2)c1C(=O)N[C@@H](C)C(C)(C)C,5 µL/min/mg

# Tested on: not listed separately
# Experiment: Intrinsic clearance in Sprague-Dawley rat microsomes
# Assay type: ADME, Microsome
# Settings: not given
row,SMILES,microsomal CLint
1,Cc1nn(-c2ccc(F)cc2)c(NS(=O)(=O)c2ccc(C#N)cc2)c1C(=O)N[C@@H](C)C(C)(C)C,13 µL/min/mg

# Tested on: not listed separately
# Experiment: Intrinsic clearance in human hepatocytes assessed per 10 '6 cells
# Assay type: ADME, cell-based, Liver, Hepatocyte
# Settings: not given
row,SMILES,hepatocyte CLint
1,Cc1nn(-c2ccc(F)cc2)c(NS(=O)(=O)c2ccc(C#N)cc2)c1C(=O)N[C@@H](C)C(C)(C)C,< 3 µL/min/1e6 cells

# Tested on: not listed separately
# Experiment: Intrinsic clearance in Sprague-Dawley rat hepatocytes assessed per 10 '6 cells
# Assay type: ADME, cell-based, Liver, Hepatocyte
# Settings: not given
row,SMILES,hepatocyte CLint
1,Cc1nn(-c2ccc(F)cc2)c(NS(=O)(=O)c2ccc(C#N)cc2)c1C(=O)N[C@@H](C)C(C)(C)C,4 µL/min/1e6 cells

# Tested on: not listed separately
# Experiment: Chemical stability of the compound assessed as half life
# Assay type: physicochemical
# Settings: not given
row,SMILES,half-life
1,Cc1nn(-c2ccc(F)cc2)c(NS(=O)(=O)c2ccc(C#N)cc2)c1C(=O)N[C@@H](C)C(C)(C)C,> 41.7 days

# Molecular target: T3, Cytochrome P450 1A2 (Homo sapiens, UniProt P05177)
# T3 sequence (P05177 whole entry): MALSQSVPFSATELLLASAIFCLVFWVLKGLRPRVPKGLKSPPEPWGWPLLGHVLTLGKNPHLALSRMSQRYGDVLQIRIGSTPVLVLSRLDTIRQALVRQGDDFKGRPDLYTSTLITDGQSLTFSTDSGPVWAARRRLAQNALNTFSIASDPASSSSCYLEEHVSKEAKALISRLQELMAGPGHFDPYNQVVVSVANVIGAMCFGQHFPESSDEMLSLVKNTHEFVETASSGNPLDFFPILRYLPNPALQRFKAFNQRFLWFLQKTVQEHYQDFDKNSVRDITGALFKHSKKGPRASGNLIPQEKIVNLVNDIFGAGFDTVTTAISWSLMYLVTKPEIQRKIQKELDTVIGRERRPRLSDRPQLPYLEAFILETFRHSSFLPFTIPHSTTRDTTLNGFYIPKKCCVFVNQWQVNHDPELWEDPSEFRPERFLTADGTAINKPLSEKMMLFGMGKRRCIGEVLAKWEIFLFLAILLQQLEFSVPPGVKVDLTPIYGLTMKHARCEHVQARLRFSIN
# Experiment: Inhibition of CYP1A2
# Assay type: ADME
# Settings: not given
row,SMILES,IC50
1,Cc1nn(-c2ccc(F)cc2)c(NS(=O)(=O)c2ccc(C#N)cc2)c1C(=O)N[C@@H](C)C(C)(C)C,> 10 µM

# Molecular target: Cytochrome P450 2C9 (Homo sapiens, UniProt P11712)
# Experiment: Inhibition of CYP2C9
# Assay type: ADME
# Settings: not given
# Cytochrome P450 2C9, sequence (P11712 whole entry): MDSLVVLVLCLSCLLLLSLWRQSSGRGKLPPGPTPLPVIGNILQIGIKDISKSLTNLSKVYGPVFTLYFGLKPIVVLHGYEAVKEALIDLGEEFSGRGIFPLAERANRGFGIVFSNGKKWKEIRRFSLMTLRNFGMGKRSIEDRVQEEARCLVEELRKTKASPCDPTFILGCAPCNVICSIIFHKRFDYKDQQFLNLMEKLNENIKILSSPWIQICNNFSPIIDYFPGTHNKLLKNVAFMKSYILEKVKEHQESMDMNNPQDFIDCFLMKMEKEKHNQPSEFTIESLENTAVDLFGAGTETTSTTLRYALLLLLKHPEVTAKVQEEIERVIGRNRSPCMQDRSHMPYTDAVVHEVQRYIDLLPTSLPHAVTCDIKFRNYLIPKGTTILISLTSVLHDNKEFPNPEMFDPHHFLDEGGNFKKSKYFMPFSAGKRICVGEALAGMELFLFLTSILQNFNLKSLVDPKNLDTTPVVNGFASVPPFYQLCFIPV
row,SMILES,IC50
1,Cc1nn(-c2ccc(F)cc2)c(NS(=O)(=O)c2ccc(C#N)cc2)c1C(=O)N[C@@H](C)C(C)(C)C,> 10 µM

# Molecular target: Cytochrome P450 2C19 (Homo sapiens, UniProt P33261)
# Experiment: Inhibition of CYP2C19
# Assay type: ADME
# Settings: not given
# Cytochrome P450 2C19, sequence (P33261 whole entry): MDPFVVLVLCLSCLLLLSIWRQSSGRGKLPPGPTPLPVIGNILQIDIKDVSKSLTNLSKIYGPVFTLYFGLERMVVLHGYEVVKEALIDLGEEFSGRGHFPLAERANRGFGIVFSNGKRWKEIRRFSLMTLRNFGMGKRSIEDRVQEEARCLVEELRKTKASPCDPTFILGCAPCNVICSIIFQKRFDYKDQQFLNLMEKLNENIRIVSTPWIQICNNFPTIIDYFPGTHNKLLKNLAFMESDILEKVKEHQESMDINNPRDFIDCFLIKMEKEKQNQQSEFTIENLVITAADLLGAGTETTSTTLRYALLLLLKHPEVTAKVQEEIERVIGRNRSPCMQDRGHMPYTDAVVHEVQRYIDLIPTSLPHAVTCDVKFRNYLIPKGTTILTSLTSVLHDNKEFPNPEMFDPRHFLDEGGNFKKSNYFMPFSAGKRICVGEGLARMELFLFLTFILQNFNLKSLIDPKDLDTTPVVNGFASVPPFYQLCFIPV
row,SMILES,IC50
1,Cc1nn(-c2ccc(F)cc2)c(NS(=O)(=O)c2ccc(C#N)cc2)c1C(=O)N[C@@H](C)C(C)(C)C,> 10 µM

# Molecular target: Cytochrome P450 2D6 (Homo sapiens, UniProt P10635)
# Experiment: Inhibition of CYP2D6
# Assay type: ADME
# Settings: not given
# Cytochrome P450 2D6, sequence (P10635 whole entry): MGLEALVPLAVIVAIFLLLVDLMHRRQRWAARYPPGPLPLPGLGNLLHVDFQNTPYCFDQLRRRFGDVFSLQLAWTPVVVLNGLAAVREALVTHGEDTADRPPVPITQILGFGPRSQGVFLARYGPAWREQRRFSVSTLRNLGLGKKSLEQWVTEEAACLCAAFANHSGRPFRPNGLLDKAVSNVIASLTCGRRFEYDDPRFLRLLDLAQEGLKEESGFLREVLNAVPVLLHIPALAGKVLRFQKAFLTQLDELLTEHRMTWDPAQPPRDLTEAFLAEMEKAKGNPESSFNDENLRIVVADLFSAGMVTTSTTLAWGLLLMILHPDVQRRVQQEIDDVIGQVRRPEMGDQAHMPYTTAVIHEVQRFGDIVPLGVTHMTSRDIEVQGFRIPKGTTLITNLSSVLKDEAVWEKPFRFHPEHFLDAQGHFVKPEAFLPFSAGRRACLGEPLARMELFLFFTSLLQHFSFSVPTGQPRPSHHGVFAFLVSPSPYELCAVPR
row,SMILES,IC50
1,Cc1nn(-c2ccc(F)cc2)c(NS(=O)(=O)c2ccc(C#N)cc2)c1C(=O)N[C@@H](C)C(C)(C)C,> 10 µM

# Molecular target: Cytochrome P450 3A4 (Homo sapiens, UniProt P08684)
# Experiment: Inhibition of CYP3A4
# Assay type: ADME
# Settings: not given
# Cytochrome P450 3A4, sequence (P08684 whole entry): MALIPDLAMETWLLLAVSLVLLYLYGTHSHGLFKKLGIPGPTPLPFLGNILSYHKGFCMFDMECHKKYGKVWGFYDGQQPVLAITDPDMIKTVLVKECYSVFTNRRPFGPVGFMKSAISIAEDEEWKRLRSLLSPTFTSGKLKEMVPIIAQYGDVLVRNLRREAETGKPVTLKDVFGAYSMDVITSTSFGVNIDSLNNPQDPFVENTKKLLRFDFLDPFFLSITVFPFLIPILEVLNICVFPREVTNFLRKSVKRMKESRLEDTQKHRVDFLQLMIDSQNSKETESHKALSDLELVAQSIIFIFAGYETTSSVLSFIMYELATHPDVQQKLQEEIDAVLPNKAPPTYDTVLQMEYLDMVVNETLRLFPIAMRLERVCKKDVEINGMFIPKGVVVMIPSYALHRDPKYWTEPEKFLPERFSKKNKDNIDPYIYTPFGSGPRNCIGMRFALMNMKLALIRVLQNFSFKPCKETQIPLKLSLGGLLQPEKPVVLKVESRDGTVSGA
row,SMILES,IC50
1,Cc1nn(-c2ccc(F)cc2)c(NS(=O)(=O)c2ccc(C#N)cc2)c1C(=O)N[C@@H](C)C(C)(C)C,> 10 µM

# Molecular target: T4, fMet-Leu-Phe receptor (Mus musculus) (UniProt P33766)
# T4 sequence (whole entry): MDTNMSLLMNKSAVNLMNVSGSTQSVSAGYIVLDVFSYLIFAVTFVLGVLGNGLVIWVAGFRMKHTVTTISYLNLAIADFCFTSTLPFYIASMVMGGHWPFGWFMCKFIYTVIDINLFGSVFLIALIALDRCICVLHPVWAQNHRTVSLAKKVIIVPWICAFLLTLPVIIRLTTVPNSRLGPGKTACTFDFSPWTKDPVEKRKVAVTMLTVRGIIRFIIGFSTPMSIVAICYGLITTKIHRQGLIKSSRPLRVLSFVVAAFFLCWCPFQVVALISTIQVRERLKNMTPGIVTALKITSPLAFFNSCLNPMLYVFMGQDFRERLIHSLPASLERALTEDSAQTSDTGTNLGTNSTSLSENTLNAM
# Experiment: Inhibition of mouse FPR1
# Settings: not given
row,SMILES,inhibition
1,Cc1nn(-c2ccc(F)cc2)c(NS(=O)(=O)c2ccc(C#N)cc2)c1C(=O)N[C@@H](C)C(C)(C)C,inactive

# Organism: Cavia porcellus
# Experiment: Inhibition of guinea pig FPR1
# Settings: not given
row,SMILES,inhibition
1,Cc1nn(-c2ccc(F)cc2)c(NS(=O)(=O)c2ccc(C#N)cc2)c1C(=O)N[C@@H](C)C(C)(C)C,inactive

# Organism: Rattus norvegicus
# Experiment: Inhibition of rat FPR1
# Settings: not given
row,SMILES,inhibition
1,Cc1nn(-c2ccc(F)cc2)c(NS(=O)(=O)c2ccc(C#N)cc2)c1C(=O)N[C@@H](C)C(C)(C)C,inactive
